This data set is described as follows: Thermogravimetric analysis of a 1α-hydroxy-vitamin D3 sample. The format is physicochemical. As to conditions: heated under nitrogen at 10 °C/min. On the procedure:
Thermogravimetric analysis of a 1α-hydroxy-vitamin D3 sample was performed using a TA Instruments 2950 thermogravimetric analyzer (available from TA Instruments of New Castle, Del.). The sample was placed in an aluminum sample pan and inserted into the thermogravimetric furnace. The furnace was heated under nitrogen at a rate of 10 ° C./min, from room temperature to a final temperature of 350° C. Nickel and Alumel™ (available from Hoskins Manufacturing Company, Novi, Mich.) were used as calibration standards. […] (See FIG. 6).

The structures appear in SMILES notation.

`C=C1/C(=C\C=C2/CCC[C@]3(C)[C@@H]([C@H](C)CCCC(C)C)CC[C@@H]23)C[C@@H](O)C[C@@H]1O` [1α-hydroxy-vitamin D3, 1α, 3β,5Z,7E-9,10-secocholesta-5,7,10(19)-triene-1,3-diol]: for the setting “from 25° C. to 150° C.”, the “weight loss (thermogravimetric thermogram)” value amounted to 0.09%. Moreover, the “decomposition temperature (thermogravimetric thermogram)” value (room temperature to 350° C.) is more than 200 °C.

(Values after US20120184514A1, “VITAMIN D COMPOUNDS AND METHODS FOR PREPARING SAME” (Vitamin Derivatives Inc., priority 2009, published 2012).)
